Source: BindingDB's records for patent US20250313563 (The Broad Institute, 2025)
“And” between values parts separate entries of the source, which are not always exact repeats. Equal entries are not always repeated.

Experiments:
[1] = target: Glycogen synthase kinase-3 alpha (Homo sapiens, UniProt P49840); experiment: TR-FRET Assay
Method in brief: (§1)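 Enzyme and test compound were first incubated together for 30 minutes in assay buffer. The kinase reaction followed and was stopped with EDTA. The pSer641 signal was read by time-resolved FRET.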

[2] = target: Glycogen synthase kinase-3 beta (Homo sapiens, UniProt P49841); experiment: TR-FRET Assay
Sequence of Glycogen synthase kinase-3 beta (P49841 whole entry): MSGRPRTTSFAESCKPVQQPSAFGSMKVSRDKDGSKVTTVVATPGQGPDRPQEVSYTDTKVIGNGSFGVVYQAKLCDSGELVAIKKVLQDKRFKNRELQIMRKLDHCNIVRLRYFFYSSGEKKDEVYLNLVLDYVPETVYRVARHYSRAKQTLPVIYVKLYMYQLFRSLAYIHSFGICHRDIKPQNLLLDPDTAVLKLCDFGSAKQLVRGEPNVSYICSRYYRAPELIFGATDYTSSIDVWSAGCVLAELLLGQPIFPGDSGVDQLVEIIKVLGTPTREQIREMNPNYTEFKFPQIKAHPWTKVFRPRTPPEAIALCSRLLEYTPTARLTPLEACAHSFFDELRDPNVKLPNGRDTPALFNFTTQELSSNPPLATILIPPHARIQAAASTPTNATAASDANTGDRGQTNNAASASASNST
Method in brief: as §1

Sequence of Glycogen synthase kinase-3 alpha (P49840 whole entry): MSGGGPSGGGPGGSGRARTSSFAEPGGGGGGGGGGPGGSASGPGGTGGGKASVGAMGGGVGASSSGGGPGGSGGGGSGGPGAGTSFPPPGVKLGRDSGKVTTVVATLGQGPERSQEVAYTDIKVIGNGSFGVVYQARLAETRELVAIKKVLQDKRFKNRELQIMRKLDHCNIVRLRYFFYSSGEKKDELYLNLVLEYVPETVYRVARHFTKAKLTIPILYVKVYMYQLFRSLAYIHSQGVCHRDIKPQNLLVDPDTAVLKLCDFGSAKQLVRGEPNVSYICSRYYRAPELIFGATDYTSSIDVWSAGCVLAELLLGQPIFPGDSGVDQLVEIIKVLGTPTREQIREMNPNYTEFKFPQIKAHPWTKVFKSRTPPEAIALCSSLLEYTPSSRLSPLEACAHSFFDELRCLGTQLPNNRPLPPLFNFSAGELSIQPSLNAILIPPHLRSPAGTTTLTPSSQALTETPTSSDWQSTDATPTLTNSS

| SMILES | IC50 [1] | IC50 [2] |
| --- | --- | --- |
| CCc1cccc(C2(CC)C3=C(N=NC3)NC3=C2C(=O)CC(C)(C)C3)c1 (centres undefined) [US20250313563, Compound 949083] | < 0.1 µM | 0.1 to 1 µM |
| CC[C@]1(c2cccc(C(F)(F)C(F)(F)F)c2)C2=CN=NC2NC2=C1C(=O)CC(C)(C)C2 (some centres undefined) [US20250313563, Compound 949103] | < 0.1 µM and 0.1 to 1 µM | < 0.1 µM and 0.1 to 1 µM |
| CC[C@]1(c2cccc(OCC(F)F)c2)C2=CN=NC2NC2=C1C(=O)CC(C)(C)C2 (some centres undefined) [US20250313563, Compound 949104] | < 0.1 µM | < 0.1 µM |
| CC[C@@]1(c2cccc(-c3cnn(CCOC)c3)c2)C2=CN=NC2NC2=C1C(=O)NC(C)(C)C2 (some centres undefined) [US20250313563, Compound 949105] | < 0.1 µM | 0.1 to 1 µM |
| CC[C@]1(c2cccc(-c3cn(C)nc3C(C)C)c2)C2=CN=NC2NC2=C1C(=O)NC(C)(C)C2 (some centres undefined) [US20250313563, Compound 949106] | 1 to 5 µM | > 5 µM |
| CC[C@]1(c2cccc(-c3cnn(C(C)(C)C)c3)c2)C2=CN=NC2NC2=C1C(=O)NC(C)(C)C2 (some centres undefined) [US20250313563, Compound 949107] | > 5 µM | > 5 µM |
| CC[C@@]1(c2cccc(-c3cc(OC)ncc3F)c2)C2=CN=NC2NC2=C1C(=O)NC(C)(C)C2 (some centres undefined) [US20250313563, Compound 949109] | < 0.1 µM | 0.1 to 1 µM |
| CC[C@@]1(c2cccc(-c3ccnc4cnccc34)c2)C2=CN=NC2NC2=C1C(=O)NC(C)(C)C2 (some centres undefined) [US20250313563, Compound 949110] | 1 to 5 µM | > 5 µM |
| CC[C@@]1(c2cccc(-c3cn(C)nc3C(C)C)c2)C2=CN=NC2NC2=C1C(=O)NC(C)(C)C2 (some centres undefined) [US20250313563, Compound 949111] | 0.1 to 1 µM | 1 to 5 µM |
| CC[C@@]1(c2cccc(OCC(F)F)c2)C2=CN=NC2NC2=C1C(=O)CC(C)(C)C2 (some centres undefined) [US20250313563, Compound 949113] | 1 to 5 µM | > 5 µM |
| CC[C@@]1(c2cccc(-c3ccnn3C)c2)C2=CN=NC2NC2=C1C(=O)N[C@@]1(CCCOC1)C2 (some centres undefined) [US20250313563, Compound 949115] | < 0.1 µM and 0.1 to 1 µM | < 0.1 µM and 1 to 5 µM |
| CC[C@]1(c2cccc(C(F)(F)F)c2)C2=CN=NC2NC2=C1C(=O)N(c1ccc(C)cc1)CC2 (some centres undefined) [US20250313563, Compound 949118] | < 0.1 µM | 0.1 to 1 µM |
| CC[C@@]1(c2cccc(C(F)(F)F)c2)C2=CN=NC2NC2=C1C(=O)N(c1ccc(C)cc1)CC2 (some centres undefined) [US20250313563, Compound 949119] | 1 to 5 µM | > 5 µM |
| CC[C@@]1(c2cccc(C(F)(F)F)c2)C2=CN=NC2NC2=C1C(=O)N(c1cnc(OC)nc1)CC2 (some centres undefined) [US20250313563, Compound 949127] | 1 to 5 µM | > 5 µM |
| CC[C@@]1(c2cccc(C(F)(F)F)c2)C2=CN=NC2NC2=C1C(=O)N(c1ccccc1C)CC2 (some centres undefined) [US20250313563, Compound 949129] | > 5 µM | > 5 µM |
| CC[C@]1(c2cccc(C3CN(C(C)=O)C3)c2)C2=CN=NC2NC2=C1C(=O)CC(C)(C)C2 (some centres undefined) [US20250313563, Compound 949131] | 0.1 to 1 µM | 1 to 5 µM |
| CC[C@@]1(c2cccc(C3CN(C(C)=O)C3)c2)C2=CN=NC2NC2=C1C(=O)CC(C)(C)C2 (some centres undefined) [US20250313563, Compound 949132] | > 5 µM | > 5 µM |
| CCC1(c2cccc(-c3ccnc(C)c3)c2)C2=C(CC(C)(C)NC2=O)NC2N=NC(C(F)F)=C21 (centres undefined) [US20250313563, Compound 949169] | < 0.1 µM and 0.1 to 1 µM | < 0.1 µM and 1 to 5 µM |
| CCC1(c2cccc(-c3cn(C)nc3C)c2)C2=C(CC(C)(C)NC2=O)NC2N=NC(C(F)F)=C21 (centres undefined) [US20250313563, Compound 949170] | < 0.1 µM | < 0.1 µM |

| SMILES | IC50 [1] | IC50 [2] |
| --- | --- | --- |
| CCC1(c2cccc(-c3cnn(C)c3)c2)C2=C(CC(C)(C)NC2=O)NC2N=NC(C(F)F)=C21 (centres undefined) [US20250313563, Compound 949171] | < 0.1 µM | < 0.1 µM and 1 to 5 µM |
| CCC1(c2cccc(N(C)c3ncccn3)c2)C2=C(CC(C)(C)NC2=O)NC2N=NC(F)=C21 (centres undefined) [US20250313563, Compound 949172] | < 0.1 µM and 0.1 to 1 µM | < 0.1 µM and 1 to 5 µM |
| CCC1(c2cccc(C(C)C)c2)C2=C(CC(C)(C)NC2=O)NC2N=NC(C)=C21 (centres undefined) [US20250313563, Compound 949173] | < 0.1 µM | < 0.1 µM |
| CCC1(c2cccc(-c3cc(C)nnc3C)c2)C2=C(CC(C)(C)NC2=O)NC2N=NC(C(F)(F)F)=C21 (centres undefined) [US20250313563, Compound 949174] | < 0.1 µM and 0.1 to 1 µM | < 0.1 µM and 0.1 to 1 µM |
| CC[C@]1(c2cccc(S(=O)(=O)CC3CC3)c2)C2=C(CC(C)(C)NC2=O)NC2N=NC(C(F)(F)F)=C21 (some centres undefined) [US20250313563, Compound 949175] | < 0.1 µM | < 0.1 µM |
| CC[C@]1(c2cccc(-c3cn(C)nc3C)c2)C2=C(CC(C)(C)NC2=O)NC2N=NC(F)=C21 (some centres undefined) [US20250313563, Compound 949176] | 1 to 5 µM | > 5 µM |
| CC[C@@]1(c2cccc(S(=O)(=O)C3CC3)c2)C2=CN=NC2NC2=C1C(=O)N(C)C(C)(C)C2 (some centres undefined) [US20250313563, Compound 949177] | < 0.1 µM and 0.1 to 1 µM | < 0.1 µM and 1 to 5 µM |
| CC[C@]1(c2cccc(N3CCCCC3)c2)C2=C(CC(C)(C)NC2=O)NC2N=NC(C(F)(F)F)=C21 (some centres undefined) [US20250313563, Compound 949178] | 0.1 to 1 µM | 1 to 5 µM |
| CC[C@@]1(c2cccc(N(C)c3ncccn3)c2)C2=CN=NC2NC2=C1C(=O)NC(C)(C)C2 (some centres undefined) [US20250313563, Compound 949179] | 0.1 to 1 µM | > 5 µM |
| CC[C@]1(c2cccc(N(C)c3ncccn3)c2)C2=C(CC(C)(C)NC2=O)NC2N=NC(C(F)(F)F)=C21 (some centres undefined) [US20250313563, Compound 949180] | < 0.1 µM | 0.1 to 1 µM |
| CC[C@]1(c2cccc(S(=O)(=O)C3CC3)c2)C2=CN=NC2NC2=C1C(=O)N(C)C(C)(C)C2 (some centres undefined) [US20250313563, Compound 949184] | 1 to 5 µM | > 5 µM |
| CC[C@@]1(c2cccc(-c3cn(C)nc3C)c2)C2=C(CC(C)(C)NC2=O)NC2N=NC(F)=C21 (some centres undefined) [US20250313563, Compound 949185] | < 0.1 µM | < 0.1 µM and 1 to 5 µM |
| CC[C@@]1(c2cccc(S(=O)(=O)CC3CC3)c2)C2=C(CC(C)(C)NC2=O)NC2N=NC(C(F)(F)F)=C21 (some centres undefined) [US20250313563, Compound 949186] | 0.1 to 1 µM | 0.1 to 1 µM |
| CC[C@]1(c2cccc(-c3cnn4ccncc34)c2)C2=CN=NC2NC2=C1C(=O)NC(C)(C)C2 (some centres undefined) [US20250313563, Compound 949263] | > 5 µM | > 5 µM |
| CC[C@]1(c2cccc(-c3cnn(-c4ccccn4)c3)c2)C2=CN=NC2NC2=C1C(=O)NC(C)(C)C2 (some centres undefined) [US20250313563, Compound 949264] | > 5 µM | > 5 µM |
| CC[C@]1(c2cccc(-c3cnn4c3CC(C)(C)CC4)c2)C2=CN=NC2NC2=C1C(=O)NC(C)(C)C2 (some centres undefined) [US20250313563, Compound 949265] | 1 to 5 µM | > 5 µM |
| CC[C@]1(c2cccc(-c3cnn(C(C)C)c3F)c2)C2=CN=NC2NC2=C1C(=O)NC(C)(C)C2 (some centres undefined) [US20250313563, Compound 949267] | 0.1 to 1 µM | 1 to 5 µM |
| CC[C@@]1(c2cccc(C(F)(F)F)c2)C2=CN=NC2NC2=C1C(=O)N(c1cnn(C)c1)CC2 (some centres undefined) [US20250313563, Compound 949271] | 0.1 to 1 µM | > 5 µM |
